Measurements taken from doi:10.64898/2025.12.30.696991 (bioRxiv, 2026).
Like-named read-outs stand apart in the source and are kept apart here.

What was measured:
in vitro = format: cell-based
Procedure: Cell proliferation and viability in the presence of the analogs was tested in the macrophage cell line RAW 264.7 using a 3-(4,5-dimethylthiazol-2-yl)-2,5-diphenyl-2H-tetrazolium bromide (MTT) assay. Cells were seeded at 3×10^4 cells/well in 96 well plates in DMEM (10% FBS, 1% pen/strep). […] DMSO vehicle was utilized as a control, as all the drugs were reconstituted from DMSO stocks. After 24 hr treatment, media was replaced with 100 μL of 0.6 mg/mL MTT solution and the cells were incubated at 37°C until formazan crystals formed. The MTT solution was then replaced with 100 μL of isopropanol, to dissolve the formazan crystals. Cell viability was determined by measuring absorbance at 560 nm of drug treated cells normalized to DMSO vehicle controls. The absorbance at 670 nm was used as a background correction. Cell viability was plotted against increasing drug concentration to obtain the 50% lethal concentration (LC50), defined as the drug concentration resulting in 50% cell viability.

[1] = test system: intracellular susceptible S. Typhimurium (ATCC 700720); assay: Intracellular gentamicin protection assay, susceptible S. Typhimurium in RAW 264.7 macrophages; format: cell-based, Salmonella enterica serovar Typhimurium; conditions: for selectivity (selectivity indices): LC50 / IC50, strain not specified; for IC50: Salmonella enterica; for Selectivity: LC50 / IC50, susceptible S. Typhimurium
Procedure: (§1) RAW 264.7 cells were seeded at 3×10^4 cells/well in a 96-well plate and maintained at 37°C for 20 hours. A single colony of susceptible or MDR S. Typhimurium was inoculated and cultured overnight in nutrient broth and diluted to obtain a log-phase culture stock with an adjusted optical density (OD600) of 0.6, equivalent to a concentration of 3×10^8 CFU/mL (determined by a prior colony forming units (CFU) assay). The bacterial stock solution was resuspended in antibiotic-free DMEM supplemented with 2% FBS and further diluted to obtain a bacterial concentration of 3×10^6 CFU/mL. Cell media was aspirated and replaced with 100 μL of bacteria culture in DMEM resulting in a multiplicity of infection (MOI) of 10. The cells underwent infection for two hours or 30 minutes at 37°C with susceptible or MDR bacteria, respectively. This differential infection incubation period was based on strain-specific infectivity potential. […] Media was aspirated from the wells and replaced with DMEM (2% FBS) containing 100 μg/mL gentamicin for one hour at 37°C to eliminate extracellular bacteria. Following this step, cells were washed once with media and treated for 22 hours with analogs at varying concentrations (0.1 – 5 μM) in DMEM (2% FBS, no pen/strep) containing 10 μg/mL gentamicin to suppress extracellular bacterial growth. AR-12 treated, uninfected, and DMSO-vehicle treated cells were included as controls. Post treatment, cells were washed with PBS and lysed with 0.1% Triton-X100, a concentration sufficient to disrupt host cells while preserving bacterial integrity. The lysates containing intracellular bacteria were serially diluted and enumerated by using drop-plate assay as described previously.([27]) Agar plates were incubated overnight at 37°C before CFU from each dilution were counted.

[2] = test system: planktonic susceptible S. Typhimurium (ATCC 700720); assay: Direct effect on planktonic susceptible bacteria (optical density 600 nm); format: cell-based, Salmonella enterica serovar Typhimurium; conditions: Salmonella enterica
Procedure: (§2) A single colony of susceptible or MDR bacteria was inoculated into nutrient broth and incubated overnight at 37°C in an orbital shaker set at 200 rpm. The overnight culture was sub-cultured (1:100) in fresh medium to obtain log-phase bacterial growth after an additional 3 hr incubation at 37°C and further adjusted to obtain a bacterial stock solution with an absorbance value of 0.6 at 600 nm, equivalent to a concentration of 3×10^8 CFU/mL. The bacterial stock was diluted with nutrient broth to obtain 3×10^4 CFU/well in a 96 well plate. Next, 10 μL of each analog were added to yield a total volume of 100 μL /well with a final concentration of 20 μM. Drug-free and bacteria-free wells were used as controls. The plate was incubated at 37°C for 22 hr. Percent bacterial viability was determined using optical density measurements at 600 nm, subtracting out bacteria free absorbance (background) and normalizing to a DMSO vehicle control. Bacterial viability was plotted against increasing drug concentration to obtain the 50% minimum inhibitory concentration (MIC50), defined as the drug concentration resulting in 50% bacterial viability.

[3] = test system: planktonic MDR S. Typhimurium (ATCC 700408); assay: Direct effect on planktonic MDR bacteria (optical density 600 nm); format: cell-based, Salmonella enterica serovar Typhimurium; conditions: Salmonella enterica, Table 2, OD 600 nm
Procedure: as §2

[4] = test system: intracellular MDR S. Typhimurium (ATCC 700408); assay: Intracellular gentamicin protection assay, MDR S. Typhimurium in RAW 264.7 macrophages; format: cell-based, Salmonella enterica serovar Typhimurium; conditions: for IC50: Salmonella enterica, RAW264.7, Table 2, intracellular burden 50% in RAW 264.7; for MDR Selectivity: Table 2, LC50 / IC50; for difference of IC50 between susceptible and MDR S. Typhimurium: defined as 2-fold difference MDR IC50 / Susc IC50
Procedure: as §1
Supplemental Figure 2: Evaluating lead compound efficacy against MDR S. Typhimurium. A) Schematic illustrating gentamicin protection assay. Day 0 RAW 264.7 macrophages are seeded into 96-well plate and STM culture is inoculated. Day 1: RAW 264.7 cells are infected with STM at an MOI of 10 for 30 min, washed, then treated with gentamicin for 1hr to remove extracellular bacteria. AR-12 analogs added to infected cells for 22hr incubation. Day 2: RAWs are washed, lysed, diluted and then dropped onto agar plates. Day 3: colony forming units (CFUs) counted. B) Dose effect curves of intracellular MDR S. Typhimurium viability from RAW 264.7 macrophages after 22hr treatment with hit compounds. CFUs normalized to untreated controls. Parental compound AR-12 included for comparison.

[5] = RAW264.7, 22 h, Table 1, concentration at which intracellular susceptible S. Typhimurium burden is 50% in RAW 264.7 macrophages, 22 h treatment, read-out: IC50
[6] = RAW264.7, Table 2, intracellular burden 50% in RAW 264.7, read-out: Susc. IC50
[7] = Table 1, planktonic susceptible S. Typhimurium viability 50% by optical density, 22 hr, read-out: MIC50
[8] = Table 2, planktonic Salmonella, OD 600 nm, read-out: Susc. MIC50

IC50 [1, 5] [nM] | IC50 [1, 6] [nM] | MIC50 [2, 7] [µM] | MIC50 [2, 8] [µM] | MIC50 [3] [µM] | IC50 [4] [nM] | difference of IC50 between susceptible and MDR S. Typhimurium [4] | Structure (SMILES) | CC50 at 24 h (in vitro; Table 1, RAW 264.7 viability reduced by 50%, MTT assay, 24 hr, 1–100 μM, read-out: LC50) [nM] | CC50 at 24 h (in vitro; Table 2, RAW 264.7 viability 50%, colorimetric assay, extended up to 500 μM, read-out: LC50) [nM] | selectivity (selectivity indices) [1] | Selectivity ([1]; Table 1) | MDR Selectivity [4] | CC50 at 24 h (in vitro; mouse, LC50) [nM] | improvement in selectivity over AR-12 [1]
140 | 140 | > 20 | > 20 | > 20 | 120 |  | Fc1cccc(CN2CCC(Nc3ccc(-n4nc(C(F)(F)F)cc4C4CCCCC4)cc3)CC2)c1 [Compound 322] |  |  |  | 324 | 372 | 43700 | 
100 | 100 | > 20 | > 20 | > 20 | 200 | strongly different | N#Cc1ccc(CN2CCC(Nc3ccc(-n4nc(C(F)(F)F)cc4C4CCCCC4)cc3)CC2)cc1 [Compound 323] |  |  |  | 333 | 160 | 32000 | 
80 | 80 | > 20 | > 20 | > 20 | 160 | strongly different | NC1CCN(c2ccc(-n3nc(C(F)(F)F)cc3C3CCCCC3)cc2)CC1 [Compound 324] |  |  |  | 244 | 118 | 18800 | 
80 | 80 | > 20 | > 20 | > 20 | 100 |  | NCC(=O)Nc1ccc(-n2nc(C(F)(F)F)cc2C2CCCCC2)cc1 [Compound 341] |  |  |  | 398 | 318 | 31800 | 
130 | 130 | > 20 | > 20 | > 20 | 120 |  | FC(F)(F)c1cc(C2CCCCC2)n(-c2ccc(N3CCC(NCc4ccccc4)C3)cc2)n1 (centres unmarked) [Compound 364] |  |  |  | 269 | 291 | 35000 | 
150 | 150 | > 20 | > 20 | > 20 | 370 | strongly different | N#Cc1ccc(CNC2CCN(c3ccc(-n4nc(C(F)(F)F)cc4C4CCCCC4)cc3)C2)cc1 (centres unmarked) [Compound 365] |  |  |  | 285 | 115 | 42700 | 
80 | 80 | > 20 | > 20 | > 20 | 60 |  | FC(F)(F)c1cc(C2CCCCC2)n(-c2ccc(OC3CCNCC3)cc2)n1 [Compound 370] |  |  |  | 229 | 269 | 17200 | 
140 | 140 | > 20 | > 20 | > 20 | 110 |  | FC(F)(F)c1cc(C2CCCCC2)n(-c2ccc(OC3CCN(Cc4ccccc4)CC3)cc2)n1 [Compound 371] |  |  |  | 644 | 790 | 90200 | 
130 | ~130 | > 20 | > 20 | > 20 | 170 |  | Fc1cccc(CN2CCC(Oc3ccc(-n4nc(C(F)(F)F)cc4C4CCCCC4)cc3)CC2)c1 [Compound 372] |  |  | > 2000 | >769 |  |  | 
130 | ~130 | > 20 | > 20 | > 20 | ~130 |  | N#Cc1ccc(CN2CCC(Oc3ccc(-n4nc(C(F)(F)F)cc4C4CCCCC4)cc3)CC2)cc1 [Compound 373] |  |  | > 2000 | >769 |  |  | 
310 | 310 | > 20 | > 20 | > 20 | 180 |  | FC(F)(F)c1cc(C2CCCCC2)n(-c2ccc(OC3CCN(Cc4ccccc4)C3)cc2)n1 (centres unmarked) [Compound 378] |  |  |  | >322 |  |  | approximately 100 fold
110 | 110 | > 20 | > 20 | > 20 | 140 |  | FC(F)(F)c1cc(C2CCCCC2)n(-c2ccc(NC3CCN(Cc4ccccc4)CC3)cc2)n1 [Compound 381] |  |  |  | 260 | 211 | 28600 | 

Structure (SMILES) | IC50 [1, 5] [nM] | IC50 [1, 6] [nM] | MIC50 [2, 7] [µM] | MIC50 [2, 8] [µM] | MIC50 [3] [µM] | IC50 [4] [nM] | difference of IC50 between susceptible and MDR S. Typhimurium [4] | CC50 at 24 h (in vitro; Table 1, RAW 264.7 viability reduced by 50%, MTT assay, 24 hr, 1–100 μM, read-out: LC50) [nM] | CC50 at 24 h (in vitro; Table 2, RAW 264.7 viability 50%, colorimetric assay, extended up to 500 μM, read-out: LC50) [nM] | selectivity (selectivity indices) [1] | Selectivity ([1]; Table 1) | MDR Selectivity [4] | CC50 at 24 h (in vitro; mouse, LC50) [nM] | improvement in selectivity over AR-12 [1]
NCC(=O)Nc1ccc(-n2nc(C(F)(F)F)cc2-c2ccc3c(ccc4ccccc43)c2)cc1 [AR-12, reference compound] | 420 | 400 | > 20 | > 20 | > 20 | 340 |  | 8000 | 8300 | around 20 | 19.8 | 24.4 |  | 
